Measured values from paper PMC10208570, “Peptidomimetic antibiotics disrupt the lipopolysaccharide transport bridge of drug-resistant Enterobacteriaceae” (Science Advances, 2023).
Where a SMILES comes first, the peptide text is derived from it. Bridges are numbered along the chain shown (N, C = ends). [ ]: non-standard residue; d: D form. The star is where a group is joined. Val(Nα-amidino) = CC(C)[C@H](NC(=N)N)C(=O)*; Hyp = O=C(O)[C@@H]1C[C@@H](O)CN1; Pen = CC(C)(S)[C@H](N)C(=O)O; dDab = NCC[C@@H](N)C(=O)O; Dab = NCC[C@H](N)C(=O)O

Biological target: T1, LptAmD33A (Escherichia coli, UniProt P0ADV1, D33A)
T1 construct: His6-GB1 (N, cleaved yes); made in house; host or cells: E. coli BL21 (DE3)
Assay: FP indirect (competition) binding assay
Set-up: species or system E. coli
Experimental: Protein stocks were purified and concentrated in buffer 1 [50 mM Na-Pi (pH 7) and 150 mM NaCl] and, if necessary, diluted to desired concentrations using buffer 2 [50 mM Na-Pi (pH 7), 150 mM NaCl, and 0.05% Tween 20]. Peptide stocks and fluorescently labeled peptide stocks were made in buffer 2. Every serial dilution consisted of 24 wells, the first well with the highest concentrate and the last well (well 24) with the lowest. First, 50 μl of buffer 2 was added to the wells 2 to 24 of each serial dilution. Then, 100 μl of concentrated unlabeled peptide/protein in their respective buffers was added to the first well. Fifty microliters were taken from the first well and added to the second well for a 1:1 serial dilution and continued for the 24 wells. […] Plates were covered with adhesive seals and left to incubate overnight at 4°C before FP measurements the next day. Anisotropy was measured using the Tecan Safire2 plate reader using a 10-nm bandwidth and setting the excitation and emission wavelengths to 635 and 670 nm, respectively. The G-factor (G) was also determined empirically as 1.094 for the instrument and included in all the anisotropy calculations.
For the indirect binding assays, r was calculated in the same manner as the direct binding assays. […] The control was subtracted from r to yield r′. Data were fit to a sigmoidal interpolation model on GraphPad Prism 9, and an IC50 was generated for each unlabeled peptide or protein measured.

T1 sequence (P0ADV1 28-159 D33A): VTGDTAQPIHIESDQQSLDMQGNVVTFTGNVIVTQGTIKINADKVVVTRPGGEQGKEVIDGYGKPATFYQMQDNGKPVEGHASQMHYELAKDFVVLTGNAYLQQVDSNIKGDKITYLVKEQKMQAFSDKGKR

SMILES: CC[C@H](C)[C@H](NC(=O)[C@@H]1C[C@@H](O)CN1C(=O)[C@@H](NC(=N)N)C(C)C)C(=O)N[C@H](C(=O)N[C@@H](Cc1ccc(O)cc1)C(=O)N[C@@H]1C(=O)N[C@@H](CC(N)=O)C(=O)N[C@@H](CCCNC(=N)N)C(=O)N[C@@H](CCN)C(=O)N[C@@H]([C@@H](C)O)C(=O)N[C@H](CCN)C(=O)N[C@@H](CCCCN)C(=O)N[C@H](C(=O)N[C@@H](CCN)C(=O)N[C@@H](CCCNC(=N)N)C(=O)N[C@@H](Cc2ccc(O)cc2)C(=O)O)CSSC1(C)C)[C@@H](C)O [Compound 7] ({Val(Nα-amidino)}-[Hyp]ITY[Pen]NR[Dab]T[dDab]KC[Dab]RY-OH; disulfide 5-12)
- IC50: 32.3 ± 3.4 nM
- Ki: 23.4 ± 2.5 nM
